Assay results as given in ChEMBL document CHEMBL5465560, “Selectivity Literature for EUbOPEN Chemogenomic Library” (2024).

Legend:
[1] = tested on: Receptor-type tyrosine-protein kinase FLT3 (Homo sapiens), P36888 [UNDEFINED MUTATION]; settings: at 10 µM
[2] = target: T1, Mitogen-activated protein kinase kinase kinase kinase 2 (Homo sapiens) (UniProt Q12851); experiment: Selectivity interaction (KinomeScan (DiscoverX)) EUB0000229b MAP4K2; settings: at 10 µM
T1 sequence (whole entry): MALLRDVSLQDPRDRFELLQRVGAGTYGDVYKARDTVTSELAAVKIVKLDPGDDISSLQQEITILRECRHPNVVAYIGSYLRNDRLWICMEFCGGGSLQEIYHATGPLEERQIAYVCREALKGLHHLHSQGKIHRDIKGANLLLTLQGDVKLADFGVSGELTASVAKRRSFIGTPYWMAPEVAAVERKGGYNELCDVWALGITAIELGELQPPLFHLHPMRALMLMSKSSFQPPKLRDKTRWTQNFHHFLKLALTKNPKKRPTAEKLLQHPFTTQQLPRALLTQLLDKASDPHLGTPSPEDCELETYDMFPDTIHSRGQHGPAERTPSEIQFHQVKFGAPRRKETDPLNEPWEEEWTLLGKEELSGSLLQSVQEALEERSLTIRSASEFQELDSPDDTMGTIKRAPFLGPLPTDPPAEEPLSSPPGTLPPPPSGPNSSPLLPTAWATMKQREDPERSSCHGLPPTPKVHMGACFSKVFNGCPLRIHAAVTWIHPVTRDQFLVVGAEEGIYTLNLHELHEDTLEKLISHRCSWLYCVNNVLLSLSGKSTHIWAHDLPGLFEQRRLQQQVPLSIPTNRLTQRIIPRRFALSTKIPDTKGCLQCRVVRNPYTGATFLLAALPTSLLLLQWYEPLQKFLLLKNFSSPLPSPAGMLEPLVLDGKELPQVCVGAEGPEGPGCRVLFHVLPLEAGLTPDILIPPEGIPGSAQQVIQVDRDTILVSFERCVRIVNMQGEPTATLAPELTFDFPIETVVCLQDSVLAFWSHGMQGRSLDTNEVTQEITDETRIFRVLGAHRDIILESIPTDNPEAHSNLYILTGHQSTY

[3] = target: T2, Dual specificity mitogen-activated protein kinase kinase 5 (Homo sapiens) (UniProt Q13163); experiment: Selectivity interaction (KinomeScan (DiscoverX)) EUB0000229b MAP2K5; settings: at 10 µM
T2 sequence (whole entry): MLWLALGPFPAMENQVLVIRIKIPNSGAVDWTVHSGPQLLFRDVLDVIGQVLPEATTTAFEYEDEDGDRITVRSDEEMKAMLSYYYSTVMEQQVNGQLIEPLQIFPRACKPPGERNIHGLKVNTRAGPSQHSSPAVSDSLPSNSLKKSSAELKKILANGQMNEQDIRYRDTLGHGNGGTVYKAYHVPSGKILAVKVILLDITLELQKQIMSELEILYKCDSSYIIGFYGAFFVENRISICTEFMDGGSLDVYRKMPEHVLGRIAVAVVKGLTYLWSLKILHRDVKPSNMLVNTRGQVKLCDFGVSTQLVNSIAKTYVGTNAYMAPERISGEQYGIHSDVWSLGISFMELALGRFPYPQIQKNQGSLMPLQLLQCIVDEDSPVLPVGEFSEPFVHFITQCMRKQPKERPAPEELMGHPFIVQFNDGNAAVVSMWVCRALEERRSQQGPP

[4] = target: Receptor tyrosine-protein kinase erbB-3 (Homo sapiens) (UniProt P21860); experiment: Selectivity interaction (KinomeScan (DiscoverX)) EUB0000092b ERBB3; settings: at 10 µM
[5] = target: Proto-oncogene tyrosine-protein kinase ROS (Homo sapiens) (UniProt P08922); experiment: Selectivity interaction (KinomeScan (DiscoverX)) EUB0000655a ROS1; settings: at 10 µM
Aurora kinase B = Aurora kinase B (Homo sapiens, UniProt Q96GD4); experiment: Selectivity interaction (ProQinase) EUB0000171b AURKB
[6] = target: Mitogen-activated protein kinase 1 (Homo sapiens, UniProt P28482); experiment: Selectivity interaction (Kinase panel (DSF assay)) EUB0001559a MAPK1
[7] = target: Serine/threonine-protein kinase 25 (Homo sapiens) (UniProt O00506); experiment: Selectivity interaction (KinomeScan (DiscoverX)) EUB0001079a STK25; settings: at 1 µM
[8] = target: TRAF2 and NCK-interacting protein kinase (Homo sapiens) (UniProt Q9UKE5); settings: at 10 µM
[9] = target: Serine/threonine-protein kinase PRP4 homolog (Homo sapiens) (UniProt Q13523); experiment: Selectivity interaction (ActivX KiNativ screen (kinase selectivity in THP-1 cell lysates)) EUB0000639a PRPF4; type: subcellular; settings: lysate, at 1 µM
[10] = target: Tyrosine-protein kinase ABL1 (Homo sapiens, UniProt P00519); experiment: Selectivity interaction (Kinase panel (literature)) EUB0001199aCl ABL1; settings: at 1 µM
[11] = target: Cyclin-dependent kinase 13 (Homo sapiens, UniProt Q14004); experiment: Selectivity interaction (KinomeScan (DiscoverX)) EUB0001619a CDK13; settings: at 1 µM

Aurora kinase B, sequence (Q96GD4 whole entry): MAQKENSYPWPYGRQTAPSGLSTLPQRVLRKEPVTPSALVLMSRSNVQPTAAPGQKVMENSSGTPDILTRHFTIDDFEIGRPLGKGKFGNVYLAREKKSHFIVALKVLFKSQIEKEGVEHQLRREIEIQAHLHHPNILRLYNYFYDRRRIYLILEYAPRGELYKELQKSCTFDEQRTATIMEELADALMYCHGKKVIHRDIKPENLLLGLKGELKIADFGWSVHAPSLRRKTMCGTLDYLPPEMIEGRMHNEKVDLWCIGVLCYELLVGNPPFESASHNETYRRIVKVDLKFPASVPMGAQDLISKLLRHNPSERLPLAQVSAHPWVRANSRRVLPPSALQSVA
Proto-oncogene tyrosine-protein kinase ROS (Homo sapiens), sequence (P08922 whole entry): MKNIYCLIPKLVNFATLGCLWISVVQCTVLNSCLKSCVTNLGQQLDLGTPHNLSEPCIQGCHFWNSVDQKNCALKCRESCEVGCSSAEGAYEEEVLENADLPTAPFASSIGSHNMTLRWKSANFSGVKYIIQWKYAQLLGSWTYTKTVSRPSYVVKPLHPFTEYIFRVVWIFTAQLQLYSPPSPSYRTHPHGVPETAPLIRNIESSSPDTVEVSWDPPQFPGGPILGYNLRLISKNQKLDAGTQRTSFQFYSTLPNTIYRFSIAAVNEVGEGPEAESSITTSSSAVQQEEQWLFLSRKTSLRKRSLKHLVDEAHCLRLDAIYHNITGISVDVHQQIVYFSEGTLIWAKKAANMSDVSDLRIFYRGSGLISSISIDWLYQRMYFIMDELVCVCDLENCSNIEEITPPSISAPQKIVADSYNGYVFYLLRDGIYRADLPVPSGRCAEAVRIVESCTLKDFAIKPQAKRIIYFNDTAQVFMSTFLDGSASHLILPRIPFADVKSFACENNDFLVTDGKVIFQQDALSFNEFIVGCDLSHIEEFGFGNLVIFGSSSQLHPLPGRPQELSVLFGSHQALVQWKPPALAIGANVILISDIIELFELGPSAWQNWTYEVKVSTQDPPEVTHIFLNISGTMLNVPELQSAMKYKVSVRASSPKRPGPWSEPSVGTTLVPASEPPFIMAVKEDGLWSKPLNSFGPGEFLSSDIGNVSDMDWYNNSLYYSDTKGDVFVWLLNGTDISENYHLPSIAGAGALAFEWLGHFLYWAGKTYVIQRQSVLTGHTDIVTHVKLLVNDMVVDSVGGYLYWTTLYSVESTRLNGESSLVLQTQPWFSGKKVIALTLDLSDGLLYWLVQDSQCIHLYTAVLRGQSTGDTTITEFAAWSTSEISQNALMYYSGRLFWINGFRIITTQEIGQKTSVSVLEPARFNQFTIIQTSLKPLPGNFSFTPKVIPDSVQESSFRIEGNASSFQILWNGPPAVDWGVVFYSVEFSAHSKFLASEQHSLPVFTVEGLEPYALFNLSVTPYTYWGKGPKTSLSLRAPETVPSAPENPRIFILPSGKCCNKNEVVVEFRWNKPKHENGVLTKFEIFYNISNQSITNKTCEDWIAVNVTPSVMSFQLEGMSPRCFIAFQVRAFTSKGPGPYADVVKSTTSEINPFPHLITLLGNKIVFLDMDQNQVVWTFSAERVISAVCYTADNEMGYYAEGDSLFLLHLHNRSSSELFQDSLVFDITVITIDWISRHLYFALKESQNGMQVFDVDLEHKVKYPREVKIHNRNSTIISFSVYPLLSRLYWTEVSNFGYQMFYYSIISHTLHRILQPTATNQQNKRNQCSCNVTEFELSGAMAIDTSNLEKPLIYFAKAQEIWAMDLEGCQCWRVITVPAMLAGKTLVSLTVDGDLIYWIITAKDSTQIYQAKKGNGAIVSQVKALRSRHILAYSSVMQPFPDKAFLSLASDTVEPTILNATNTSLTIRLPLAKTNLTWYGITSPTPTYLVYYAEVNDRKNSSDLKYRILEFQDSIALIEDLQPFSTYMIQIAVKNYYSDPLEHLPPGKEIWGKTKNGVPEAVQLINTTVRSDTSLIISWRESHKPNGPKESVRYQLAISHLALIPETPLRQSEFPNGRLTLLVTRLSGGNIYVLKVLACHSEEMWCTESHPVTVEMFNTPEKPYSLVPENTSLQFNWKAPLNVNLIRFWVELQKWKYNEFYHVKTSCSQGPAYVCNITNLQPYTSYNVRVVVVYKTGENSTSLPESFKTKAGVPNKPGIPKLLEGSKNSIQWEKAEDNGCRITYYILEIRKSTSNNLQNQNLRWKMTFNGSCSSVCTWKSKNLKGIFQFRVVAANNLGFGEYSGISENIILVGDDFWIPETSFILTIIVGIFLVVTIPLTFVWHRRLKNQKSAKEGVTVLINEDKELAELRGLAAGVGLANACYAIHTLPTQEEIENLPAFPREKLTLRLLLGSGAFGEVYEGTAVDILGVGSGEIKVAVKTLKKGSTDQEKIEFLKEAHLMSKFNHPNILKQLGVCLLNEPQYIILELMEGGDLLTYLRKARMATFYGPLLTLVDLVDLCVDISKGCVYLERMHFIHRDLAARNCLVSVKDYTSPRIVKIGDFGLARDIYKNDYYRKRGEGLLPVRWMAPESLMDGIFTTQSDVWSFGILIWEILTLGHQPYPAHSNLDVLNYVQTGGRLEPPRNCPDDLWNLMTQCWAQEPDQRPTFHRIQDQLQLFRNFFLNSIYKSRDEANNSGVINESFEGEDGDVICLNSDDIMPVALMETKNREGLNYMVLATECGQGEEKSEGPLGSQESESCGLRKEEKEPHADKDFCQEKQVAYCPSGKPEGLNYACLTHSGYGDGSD
TRAF2 and NCK-interacting protein kinase (Homo sapiens), sequence (Q9UKE5 whole entry, looked up): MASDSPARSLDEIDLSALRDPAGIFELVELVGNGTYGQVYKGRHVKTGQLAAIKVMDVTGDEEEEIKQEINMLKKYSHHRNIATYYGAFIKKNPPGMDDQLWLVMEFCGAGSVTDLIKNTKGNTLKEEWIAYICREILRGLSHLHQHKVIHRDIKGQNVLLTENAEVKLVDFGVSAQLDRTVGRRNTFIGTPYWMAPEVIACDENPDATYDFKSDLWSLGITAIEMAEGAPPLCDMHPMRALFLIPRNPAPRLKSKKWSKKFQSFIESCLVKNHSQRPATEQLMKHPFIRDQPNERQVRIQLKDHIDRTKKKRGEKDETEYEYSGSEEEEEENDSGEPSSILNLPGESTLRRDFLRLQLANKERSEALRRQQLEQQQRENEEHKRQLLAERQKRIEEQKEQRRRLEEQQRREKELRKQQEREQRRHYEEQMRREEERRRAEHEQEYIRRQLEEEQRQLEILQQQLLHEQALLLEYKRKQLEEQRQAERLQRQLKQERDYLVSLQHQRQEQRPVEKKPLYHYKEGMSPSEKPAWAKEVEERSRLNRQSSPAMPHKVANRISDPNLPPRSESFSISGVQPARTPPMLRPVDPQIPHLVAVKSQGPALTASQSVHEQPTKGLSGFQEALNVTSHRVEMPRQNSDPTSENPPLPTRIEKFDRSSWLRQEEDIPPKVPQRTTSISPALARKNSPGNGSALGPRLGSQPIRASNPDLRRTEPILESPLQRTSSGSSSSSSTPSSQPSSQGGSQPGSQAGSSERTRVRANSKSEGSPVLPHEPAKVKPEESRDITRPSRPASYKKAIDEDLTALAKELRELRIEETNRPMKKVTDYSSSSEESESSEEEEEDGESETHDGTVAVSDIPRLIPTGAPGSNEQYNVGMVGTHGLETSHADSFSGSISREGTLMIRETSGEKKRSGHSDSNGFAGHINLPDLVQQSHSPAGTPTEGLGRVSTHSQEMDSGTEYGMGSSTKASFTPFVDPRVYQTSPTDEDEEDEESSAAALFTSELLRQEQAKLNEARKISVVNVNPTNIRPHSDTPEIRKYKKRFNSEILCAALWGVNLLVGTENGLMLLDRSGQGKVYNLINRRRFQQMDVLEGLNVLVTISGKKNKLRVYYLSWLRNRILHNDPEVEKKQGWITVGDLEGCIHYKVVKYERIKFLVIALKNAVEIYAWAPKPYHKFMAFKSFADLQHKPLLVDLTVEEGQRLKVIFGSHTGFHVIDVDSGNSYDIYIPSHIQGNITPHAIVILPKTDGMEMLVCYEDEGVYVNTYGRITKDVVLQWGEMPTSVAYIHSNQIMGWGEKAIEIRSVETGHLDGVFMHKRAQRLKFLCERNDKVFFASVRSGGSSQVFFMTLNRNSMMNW
Mitogen-activated protein kinase 1, sequence (P28482 whole entry): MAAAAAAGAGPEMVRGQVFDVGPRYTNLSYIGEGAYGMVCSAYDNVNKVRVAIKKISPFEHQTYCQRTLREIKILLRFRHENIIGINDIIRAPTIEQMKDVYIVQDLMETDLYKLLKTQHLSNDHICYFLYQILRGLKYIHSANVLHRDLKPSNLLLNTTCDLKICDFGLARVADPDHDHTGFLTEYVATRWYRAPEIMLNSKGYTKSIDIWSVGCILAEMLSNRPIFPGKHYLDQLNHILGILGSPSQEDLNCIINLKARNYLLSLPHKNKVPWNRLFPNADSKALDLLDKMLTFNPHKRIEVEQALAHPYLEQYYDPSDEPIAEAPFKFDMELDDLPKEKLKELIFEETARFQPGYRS
Serine/threonine-protein kinase 25 (Homo sapiens), sequence (O00506 whole entry, looked up): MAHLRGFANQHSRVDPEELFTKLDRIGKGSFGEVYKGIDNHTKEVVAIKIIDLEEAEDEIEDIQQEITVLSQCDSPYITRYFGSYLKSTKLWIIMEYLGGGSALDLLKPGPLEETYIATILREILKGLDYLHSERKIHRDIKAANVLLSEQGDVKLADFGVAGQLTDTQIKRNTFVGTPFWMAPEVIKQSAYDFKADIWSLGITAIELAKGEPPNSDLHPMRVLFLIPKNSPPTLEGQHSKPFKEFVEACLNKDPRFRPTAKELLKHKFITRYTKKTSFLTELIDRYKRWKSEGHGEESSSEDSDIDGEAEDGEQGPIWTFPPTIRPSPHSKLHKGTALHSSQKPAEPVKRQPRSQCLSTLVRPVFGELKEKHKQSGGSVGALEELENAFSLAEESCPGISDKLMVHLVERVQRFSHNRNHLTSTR

Question: CCN(CC)CCCCNc1ncc2cc(-c3cc(OC)cc(OC)c3)c(NC(=O)NC(C)(C)C)nc2n1 was tested. Which % of control [1] did it give?
Answer: 100%

Question: For COc1cc(N(C)c2ccnc3ccc(C(F)(F)F)cc23)cc(OC)c1OC, which % binding [2] is on record?
Answer: 65%

Question: What about the % binding [3] of the same compound?
Answer: 86%

Question: CCC(=O)N1CCN(c2ccc(-n3c(=O)ccc4cnc5ccc(-c6cnc7ccccc7c6)cc5c43)cc2C(F)(F)F)CC1 was tested. Which % of control [4] did it give?
Answer: 44%

Question: CN(C)CCOc1ccc(-c2nc(-c3ccncc3)c(-c3ccc4c(c3)CC/C4=N\O)[nH]2)cc1 was tested. Which % of control [5] did it give?
Answer: 88%

Question: How did the % of control (Aurora kinase B; at 1 µM) turn out when C=CC(=O)Nc1cccc(C(=O)Nc2ccc(Nc3cc(-c4[nH]c(SC)nc4C)ccn3)cc2)c1 was run?
Answer: 73%

Question: And the % of control (Aurora kinase B; at 5 µM)?
Answer: 40%

Question: For CN(C(=O)c1cnn2cccnc12)c1cc2c(cc1N1CCOCC1)C(=O)N(C[C@@H](F)C(C)(C)O)C2, which dTM [6] is on record?
Answer: -1 K

Question: Which % of control [7] does the source give for Nc1cnc(N2CCc3cc(S(=O)(=O)Nc4c(F)cc(Cl)cc4F)cc(N4CCCC4=O)c32)nc1 [TP-020n] here?
Answer: 88%

Question: Which % of control [8] does the source give for Cc1cc([C@@H](C)Nc2ccccc2C(=O)O)c2nc(N3CCOCC3)cc(=O)n2c1 [AZD-6482] here?
Answer: 98%

Question: Which % of inhibition [9] does the source give for CC[C@@H]1[C@H](F)C(=O)N[C@@H]1COc1nccc2cc(C(N)=O)c(OC)cc12 [ZIMLOVISERTIB] here?
Answer: 67.7%

Question: Which % of inhibition [10] does the source give for CN1Cc2nccc(-c3cn(C)nc3-c3ccc(F)cc3)c2C1=O here?
Answer: 1%

Question: Which % of control [11] does the source give for N#Cc1cccc(-c2c[nH]c3ncnc(N4CCOCC4)c23)c1 here?
Answer: 100%
